Our source for the excess molar enthalpy and mass density values is the NIST ThermoML archive (doi:10.1016/j.tca.2004.09.012).

Data set [1] is described as follows: excess molar enthalpy (molar enthalpy of mixing); xn = mol fraction of the nth substance listed. As to conditions: 298.15 K, 101.3 kPa, Liquid.
For data set [2] the following is noted: 298.15 K; 101.33 kPa; Liquid.

Each structure is given as a SMILES string. Numbers after ± are expanded uncertainties.

In the case of `CC(=O)CC(C)C` [4-methylpentan-2-one] + CO, the excess molar enthalpy was 0.034 ± 0.00232 kcal/mol in data set [1] (x1 = 0.0523); 0.0604 ± 0.00335 kcal/mol in data set [1] (x1 = 0.0998); 0.0839 ± 0.0043 kcal/mol in data set [1] (x1 = 0.1502); 0.105 ± 0.00526 kcal/mol in data set [1] (x1 = 0.2002); 0.126 ± 0.00598 kcal/mol in data set [1] (x1 = 0.2495); 0.159 ± 0.00741 kcal/mol in data set [1] (x1 = 0.2954). The excess molar enthalpy in data set [1] (x1 = 0.4019) amounted to 0.192 ± 0.0086 kcal/mol; in data set [1] (x1 = 0.5037), 0.209 ± 0.00932 kcal/mol; in data set [1] (x1 = 0.6059) it was 0.211 ± 0.00932 kcal/mol; in data set [1] (x1 = 0.707), 0.195 ± 0.00884 kcal/mol; in data set [1] (x1 = 0.8119), 0.155 ± 0.00717 kcal/mol; in data set [1] (x1 = 0.908), 0.0917 ± 0.00454 kcal/mol.
For `CCCCO` [butan-1-ol], in data set [2], the mass density was found to be 805.75 ± 0.69 kg/m3.
With `CC(=O)CC(C)C` [4-methylpentan-2-one], the mass density in data set [2] came out at 796.19 ± 0.63 kg/m3.
In the case of `CC(=O)CC(C)C` [4-methylpentan-2-one] + CCCO, the excess molar enthalpy in data set [1] (x1 = 0.0797) was 0.0934 ± 0.00237 kcal/mol; in data set [1] (x1 = 0.1587) it was 0.164 ± 0.00382 kcal/mol; in data set [1] (x1 = 0.2384), 0.22 ± 0.00478 kcal/mol; in data set [1] (x1 = 0.3192) it was 0.262 ± 0.00574 kcal/mol; in data set [1] (x1 = 0.3901) it was 0.29 ± 0.00621 kcal/mol; in data set [1] (x1 = 0.4948), 0.31 ± 0.00669 kcal/mol. The excess molar enthalpy in data set [1] (x1 = 0.5955) came out at 0.307 ± 0.00669 kcal/mol; in data set [1] (x1 = 0.6981), 0.281 ± 0.00598 kcal/mol; in data set [1] (x1 = 0.8004), 0.225 ± 0.00502 kcal/mol; in data set [1] (x1 = 0.9012), 0.135 ± 0.00311 kcal/mol.
With `CO` [methanol], in data set [2], the mass density turned out to be 786.5 ± 0.61 kg/m3.
For the compound `CC(=O)CC(C)C` [4-methylpentan-2-one] + CCCCCCO, the excess molar enthalpy came to 0.134 ± 0.00311 kcal/mol in data set [1] (x1 = 0.0995); 0.234 ± 0.00526 kcal/mol in data set [1] (x1 = 0.2004); 0.302 ± 0.00645 kcal/mol in data set [1] (x1 = 0.3015); 0.344 ± 0.00741 kcal/mol in data set [1] (x1 = 0.4029); 0.361 ± 0.00765 kcal/mol in data set [1] (x1 = 0.5082); 0.36 ± 0.00765 kcal/mol in data set [1] (x1 = 0.5096). Moreover, the excess molar enthalpy amounted to 0.35 ± 0.00741 kcal/mol in data set [1] (x1 = 0.6091), 0.313 ± 0.00669 kcal/mol in data set [1] (x1 = 0.7086), 0.248 ± 0.0055 kcal/mol in data set [1] (x1 = 0.8049) and 0.144 ± 0.00335 kcal/mol in data set [1] (x1 = 0.903).
With `CCCCCCO` [hexan-1-ol], the mass density in data set [2] came out at 815.2 ± 0.99 kg/m3.
Turning to `CCO` [ethanol], in data set [2], the mass density is 785.15 ± 0.58 kg/m3.
For `CC(=O)CC(C)C` [4-methylpentan-2-one] + CCCCO, the excess molar enthalpy in data set [1] (x1 = 0.1005) was found to be 0.124 ± 0.00287 kcal/mol; in data set [1] (x1 = 0.1998), 0.212 ± 0.00478 kcal/mol; in data set [1] (x1 = 0.2999), 0.272 ± 0.00598 kcal/mol; in data set [1] (x1 = 0.3967) it was 0.312 ± 0.00669 kcal/mol; in data set [1] (x1 = 0.3996), 0.309 ± 0.00669 kcal/mol; in data set [1] (x1 = 0.4967) it was 0.331 ± 0.00717 kcal/mol. The excess molar enthalpy is 0.326 ± 0.00693 kcal/mol in data set [1] (x1 = 0.5978), 0.297 ± 0.00645 kcal/mol in data set [1] (x1 = 0.6981), 0.238 ± 0.00526 kcal/mol in data set [1] (x1 = 0.7978) and 0.14 ± 0.00335 kcal/mol in data set [1] (x1 = 0.9006).
`CC(=O)CC(C)C` [4-methylpentan-2-one] + CCCCCO: the excess molar enthalpy amounted to 0.13 ± 0.00311 kcal/mol in data set [1] (x1 = 0.1008); 0.224 ± 0.00502 kcal/mol in data set [1] (x1 = 0.2043); 0.286 ± 0.00621 kcal/mol in data set [1] (x1 = 0.304); 0.322 ± 0.00693 kcal/mol in data set [1] (x1 = 0.403); 0.324 ± 0.00693 kcal/mol in data set [1] (x1 = 0.4035); 0.341 ± 0.00717 kcal/mol in data set [1] (x1 = 0.503). Further, the excess molar enthalpy in data set [1] (x1 = 0.5035) was 0.337 ± 0.00717 kcal/mol; in data set [1] (x1 = 0.6017) it was 0.334 ± 0.00717 kcal/mol; in data set [1] (x1 = 0.7007), 0.303 ± 0.00645 kcal/mol; in data set [1] (x1 = 0.7996), 0.242 ± 0.00526 kcal/mol; in data set [1] (x1 = 0.9002), 0.144 ± 0.00335 kcal/mol.
For the compound `CCCO` [propan-1-ol], in data set [2], the mass density is given as 799.51 ± 0.57 kg/m3.
Consider `CCCCCO` [pentan-1-ol], for which the mass density in data set [2] was determined as 810.88 ± 0.99 kg/m3.
In the case of `CC(=O)CC(C)C` [4-methylpentan-2-one] + CCO, the excess molar enthalpy in data set [1] (x1 = 0.0772) came to 0.0649 ± 0.00179 kcal/mol; in data set [1] (x1 = 0.1571), 0.122 ± 0.00287 kcal/mol; in data set [1] (x1 = 0.2369), 0.169 ± 0.00382 kcal/mol; in data set [1] (x1 = 0.2947) it was 0.208 ± 0.00454 kcal/mol; in data set [1] (x1 = 0.3977), 0.251 ± 0.0055 kcal/mol; in data set [1] (x1 = 0.5), 0.279 ± 0.00598 kcal/mol. For the same compound, the excess molar enthalpy was determined as 0.287 ± 0.00621 kcal/mol in data set [1] (x1 = 0.5995), 0.273 ± 0.00598 kcal/mol in data set [1] (x1 = 0.6981), 0.232 ± 0.00502 kcal/mol in data set [1] (x1 = 0.7954) and 0.149 ± 0.00359 kcal/mol in data set [1] (x1 = 0.897).
